{
  "source": "patent US9745284B2",
  "about": "“2-pyridyloxy-4-ether orexin receptor antagonists” (MERCK SHARP & DOHME CORP., priority 2013, dated 2017)",
  "key": {"hOX1R": {"biological_target": "hOX1R (Homo sapiens, UniProt O43613)", "test": "FLIPR Ca2+ flux assay, orexin-1 receptor", "type": "cell-based", "conditions": "CHO cells expressing orexin-1 receptor; agonist 70 pM Ala-6,12 orexin-A"}, "human orexin-2 receptor": {"biological_target": "human orexin-2 receptor (Homo sapiens (Human), UniProt O43614)", "sequence (O43614 whole entry)": "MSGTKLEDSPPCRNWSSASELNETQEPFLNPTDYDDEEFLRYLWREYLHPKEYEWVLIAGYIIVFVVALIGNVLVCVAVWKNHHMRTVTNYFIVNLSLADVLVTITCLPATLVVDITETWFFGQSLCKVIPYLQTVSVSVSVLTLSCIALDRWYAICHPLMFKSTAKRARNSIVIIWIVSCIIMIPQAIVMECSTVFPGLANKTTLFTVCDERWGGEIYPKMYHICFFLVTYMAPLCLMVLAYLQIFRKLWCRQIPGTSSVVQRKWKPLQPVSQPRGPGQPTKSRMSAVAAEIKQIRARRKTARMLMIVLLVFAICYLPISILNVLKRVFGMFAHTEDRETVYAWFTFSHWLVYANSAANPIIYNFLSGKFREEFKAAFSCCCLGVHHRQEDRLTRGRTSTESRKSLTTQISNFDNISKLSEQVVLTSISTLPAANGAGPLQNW", "test": "FLIPR Ca2+ flux assay, orexin-2 receptor", "type": "cell-based", "conditions": "CHO cells expressing human orexin-2 receptor; agonist 70 pM Ala-6,12 orexin-A; read-out: hOX2R FLIPR IC50", "procedure": "The utility of the compounds in accordance with the present invention as orexin receptor OX1R and/or OX2R antagonists may be readily determined without undue experimentation by methodology well known in the art, including the “FLIPR Ca^2+ Flux Assay” (Okumura et al., Biochem. Biophys. Res. Comm. 280:976-981, 2001). In a typical experiment the OX1 and OX2 receptor antagonistic activity of the compounds of the present invention was determined in accordance with the following experimental method. For intracellular calcium measurements, Chinese hamster ovary (CHO) cells expressing the rat orexin-1 receptor or the human orexin-2 receptor, are grown in Iscove's modified DMEM containing 2 mM L-glutamine, […], 1% hypoxanthine-thymidine supplement, 100 U/ml penicillin, 100 μg/ml streptomycin and 10% heat-inactivated fetal calf serum (FCS). The cells are seeded at 20,000 cells/well into Becton-Dickinson black 384-well clear bottom sterile plates coated with poly-D-lysine. All reagents were from GIBCO-Invitrogen Corp. The seeded plates are incubated overnight at 37° C. and 5% CO2. Ala-6,12 human orexin-A as the agonist is prepared as a 1 mM stock solution in 1% bovine serum albumin (BSA) and diluted in assay buffer (HBSS containing 20 mM HEPES, 0.1% BSA and 2.5 mM probenecid, pH7.4) for use in the assay at a final concentration of 70 pM. Test compounds are prepared as 10 mM stock solution in DMSO, then diluted in 384-well plates, first in DMSO, then assay buffer. On the day of the assay, cells are washed 3 times with 100 μl assay buffer and then incubated for 60 min (37° C., 5% CO2) in 60 μl assay buffer containing 1 μM Fluo-4AM ester, 0.02% pluronic acid, and 1% BSA. The dye loading solution is then aspirated and cells are washed 3 times with 100 μl assay buffer. 30 μl of that same buffer is left in each well. Within the Fluorescent Imaging Plate Reader (FLIPR, Molecular Devices), test compounds are added to the plate in a volume of 25 μl, incubated for 5 min and finally 25 μl of agonist is added. Fluorescence is measured for each well at 1 second intervals for 5 minutes and the height of each fluorescence peak is compared to the height of the fluorescence peak induced by 70 pM Ala-6,12 orexin-A with buffer in place of antagonist. For each antagonist, IC50 value (the concentration of compound needed to inhibit 50% of the agonist response) is determined. Alternatively, compound potency can be assessed by a radioligand binding assay (described in Bergman et. al. Bioorg. Med. Chem. Lett. 2008, 18, 1425-1430) in which the inhibition constant (Ki) is determined in membranes prepared from CHO cells expressing either the OX1 or OX2 receptor. The intrinsic orexin receptor antagonist activity of a compound which may be used in the present invention may be determined by these assays."}},
  "data": [
    {"smiles": "CCOc1ccnc(O[C@@H]2CC[C@@H](C)N(C(=O)c3ccccc3-n3nccn3)C2)c1", "note": "[Example 1, 4-Ethoxy-2-{[(3R,6R)-6-methyl-1-{[2-(2H-1,2,3-triazol-2-yl)phenyl]carbonyl}piperidin-3-yl]oxy}pyridine]", "values": [
      {"measurement": "IC50", "setting": "hOX1R", "result": 0.859, "unit": "µM"},
      {"measurement": "IC50", "setting": "human orexin-2 receptor", "result": 0.0205, "unit": "µM"}
    ]},
    {"smiles": "C[C@@H]1CC[C@@H](Oc2cc(OCC(F)F)ccn2)CN1C(=O)c1ccccc1CS(C)(=O)=O", "note": "[Example 31, 4-(2,2-difluoroethoxy)-2-{[(3R,6R)-6-methyl-1-({2-[(methylsulfonyl)methyl]phenyl}carbonyl)piperidin-3-yl]oxy}pyridine]", "values": [
      {"measurement": "IC50", "setting": "hOX1R", "result": "> 10", "unit": "µM"},
      {"measurement": "IC50", "setting": "human orexin-2 receptor", "result": 0.034, "unit": "µM"}
    ]},
    {"smiles": "COc1ccnc(O[C@@H]2CC[C@@H](C)N(C(=O)c3ccsc3-c3ncccn3)C2)c1", "note": "[Example 58, ((2R,5R)-5-((4-Methoxypyridin-2-yl)oxy)-2-methylpiperidin-1-yl)(2-(pyrimidin-2-yl)thiophen-3-yl)methanone]", "values": [
      {"measurement": "IC50", "setting": "hOX1R", "result": 1.11, "unit": "µM"},
      {"measurement": "IC50", "setting": "human orexin-2 receptor", "result": 0.021, "unit": "µM"}
    ]},
    {"smiles": "COc1ccnc(O[C@@H]2CC[C@@H](C)N(C(=O)c3ccccc3-n3ncnn3)C2)c1", "note": "[Example 6, 4-Methoxy-2-{[(3R,6R)-6-methyl-1-{[2-(2H-tetrazol-2-yl)phenyl]carbonyl}piperidin-3-yl]oxy}pyridine]", "values": [
      {"measurement": "IC50", "setting": "hOX1R", "result": 2.18, "unit": "µM"},
      {"measurement": "IC50", "setting": "human orexin-2 receptor", "result": 0.019, "unit": "µM"}
    ]},
    {"smiles": "COc1ccnc(O[C@@H]2CC[C@@H](C)N(C(=O)c3ccccc3-n3nccn3)C2)c1F", "note": "[Example 49, 3-Fluoro-4-methoxy-2-{[(3R,6R)-6-methyl-1-{[2-(2H-1,2,3-triazol-2-yl)phenyl]carbonyl}piperidin-3-yl]oxy}pyridine]", "values": [
      {"measurement": "IC50", "setting": "hOX1R", "result": 10, "unit": "µM"},
      {"measurement": "IC50", "setting": "human orexin-2 receptor", "result": 0.071, "unit": "µM"}
    ]},
    {"smiles": "COc1ccnc(O[C@@H]2CC[C@@H](C)N(C(=O)c3ccccc3C3CC3)C2)c1", "note": "[Example 12, 2-({(3R,6R)-1-[(2-cyclopropylphenyl)carbonyl]-6-methylpiperidin-3-yl}oxy)-4-methoxypyridine]", "values": [
      {"measurement": "IC50", "setting": "hOX1R", "result": 0.938, "unit": "µM"},
      {"measurement": "IC50", "setting": "human orexin-2 receptor", "result": 0.011, "unit": "µM"}
    ]},
    {"smiles": "C[C@@H]1CC[C@@H](Oc2cc(OCC(F)F)ccn2)CN1C(=O)c1ncccc1-c1ncccn1", "note": "[Example 47, 2-(2-{[(2R,5R)-5-{[4-(2,2-difluoroethoxy)pyridin-2-yl]oxy}-2-methylpiperidin-1-yl]carbonyl}pyridin-3-yl)pyrimidine]", "values": [
      {"measurement": "IC50", "setting": "hOX1R", "result": 9.27, "unit": "µM"},
      {"measurement": "IC50", "setting": "human orexin-2 receptor", "result": 0.084, "unit": "µM"}
    ]},
    {"smiles": "COc1ccnc(O[C@@H]2CC[C@@H](C)N(C(=O)c3ccccc3C(F)(F)F)C2)c1", "note": "[Example 13, 4-methoxy-2-{[(3R,6R)-6-methyl-1-{[2-(trifluoromethyl)phenyl]carbonyl}piperidin-3-yl]oxy}pyridine]", "values": [
      {"measurement": "IC50", "setting": "hOX1R", "result": 1.76, "unit": "µM"},
      {"measurement": "IC50", "setting": "human orexin-2 receptor", "result": 0.0562, "unit": "µM"}
    ]},
    {"smiles": "C[C@@H]1CC[C@@H](Oc2cc(OC(F)F)ccn2)CN1C(=O)c1ccccc1-n1ncnn1", "note": "[Example 57, 4-(difluoromethoxy)-2-{[(3R,6R)-6-methyl-1-{[2-(2H-tetrazol-2-yl)phenyl]carbonyl}piperidin-3-yl]oxy}pyridine]", "values": [
      {"measurement": "IC50", "setting": "hOX1R", "result": 1.69, "unit": "µM"},
      {"measurement": "IC50", "setting": "human orexin-2 receptor", "result": 0.011, "unit": "µM"}
    ]},
    {"smiles": "C[C@@H]1CC[C@@H](Oc2cc(OCC(F)F)ccn2)CN1C(=O)c1ccsc1-n1nccn1", "note": "[Example 60, (2-(2H-1,2,3-Triazol-2-yl)thiophen-3-yl)((2R,5R)-5-((4-(2,2-difluoroethoxy)pyridin-2-yl)oxy)-2-methylpiperidin-1-yl)methanone]", "values": [
      {"measurement": "IC50", "setting": "hOX1R", "result": 2.02, "unit": "µM"},
      {"measurement": "IC50", "setting": "human orexin-2 receptor", "result": 0.022, "unit": "µM"}
    ]},
    {"smiles": "C[C@@H]1CC[C@@H](Oc2cc(OC(F)F)ccn2)CN1C(=O)c1ccccc1C1(C#N)CC1", "note": "[Example 56, 1-(2-{[(2R,5R)-5-{[4-(difluoromethoxy)pyridin-2-yl]oxy}-2-methylpiperidin-1-yl]carbonyl}phenyl) cyclopropane-carbonitrile]", "values": [
      {"measurement": "IC50", "setting": "hOX1R", "result": 1.15, "unit": "µM"},
      {"measurement": "IC50", "setting": "human orexin-2 receptor", "result": 0.011, "unit": "µM"}
    ]}
  ]
}
